Laboratory results published in patent publication US20190192699A1, “NUCLEAR IMAGING AND RADIOTHERAPEUTICS AGENTS TARGETING CARBONIC ANHYDRASE IX AND USES THEREOF” (THE JOHNS HOPKINS UNIVERSITY, priority 2016, published 2019).
“And” between values parts separate entries of the source, which are not always exact repeats. Equal entries are not always repeated.

Test system: SK-RC-52 xenografts
Assay: Biodistribution of [111In]XYIMSR-01 and [177Lu]XYIMSR-01
Assay type: in vivo, mice
Description: Cell Lines and Mouse Models. Animal experiments were performed in accordance with protocols approved by the Johns Hopkins Animal Care and Use Committee (ACUC). Six-week-old female NOD/SCID mice were purchased from the Animal Resource Core of the Sidney Kimmel Comprehensive Cancer Center of Johns Hopkins and were subcutaneously injected in the lower left flank or upper right flank with 1×10^6 SK-RC-52 cells in RPMI 1640 GlutaMAX™ media (Life Technologies, Frederick, Md.) supplemented with 1% fetal bovine serum (FBS). Mice were monitored for tumor size and used for SPECT/CT imaging when the size of the tumor reached 100 mm^3.
Biodistribution of [^111In]XYIMSR-01 and [^177Lu]XYIMSR-01. Mice bearing SK-RC-52 xenografts at lower left flank were injected intravenously with 740 kBq (20 μCi) of [^111In]XYIMSR-01, or [^177Lu]XYIMSR-01 in 200 μL of PBS. For competitive blocking, same tumor bearing mice were injected with 740 kBq (20 μCi) of [^111In]XYIMSR-01 and 200 nmole of 1 in 200 μL of PBS. At 1 h, 4 h, 8 h, 24 h and 48 h post-injection, mice were sacrificed by cervical dislocation and the blood was immediately collected by cardiac puncture. Heart, lungs, pancreas, spleen, fat, brain, muscle, small intestines, liver, stomach, kidney, urinary bladder, and tumor were collected. Each organ was weighed and the tissue radioactivity was measured with an automated gamma counter (1282 Compugamma CS, Pharmacia/LKBNuclear, Inc., Mt. Waverly, Vic. Australia). The percentage of injected dose per gram of tissue (% ID/g) was calculated by comparison with samples of a standard dilution of the initial dose. All measurements were corrected for radioactive decay.
Data were expressed as mean±standard deviation (SD). Prism software (GraphPAD, San Diego, Calif.) was used to determine statistical significance. Statistical significance was calculated using a paired t test. P-values […] were considered significant.

[1] = 24 hr + Block (200 nmole of 1 co-injected)

CC(CCC(=O)N[C@@H](CC(=O)N[C@@H](CC(=O)N[C@@H](CCCCn1cc(CCCC(=O)Nc2nnc(S(N)(=O)=O)s2)nn1)C(=O)NCCOCCOCCNC(=O)CN1CCN(CC(=O)[O-])CCN(CC(=O)[O-])CCN(CC(=O)[O-])CC1)C(=O)O)C(=O)O)(c1ccc(O)cc1)c1ccc(O)cc1.[111In+3] [[^111In]XYIMSR-01]
Biodistribution: Bladder (1 hr post-injection): 4.90 ± 4.96 % ID/g
Biodistribution: Blood (1 hr post-injection): 1.34 ± 0.17 % ID/g
Biodistribution: Brain (1 hr post-injection): 1.23 ± 1.10 % ID/g
Biodistribution: Fat (1 hr post-injection): 1.03 ± 0.24 % ID/g
Biodistribution: Heart (1 hr post-injection): 5.98 ± 0.53 % ID/g
Biodistribution: Kidney (1 hr post-injection): 71.26 ± 8.74 % ID/g
Biodistribution: Liver (1 hr post-injection): 8.36 ± 0.73 % ID/g
Biodistribution: Lung (1 hr post-injection): 45.85 ± 19.89 % ID/g
Biodistribution: Muscle (1 hr post-injection): 2.34 ± 2.19 % ID/g
Biodistribution: Pancreas (1 hr post-injection): 3.81 ± 0.72 % ID/g
Biodistribution: Small intestine (1 hr post-injection): 9.37 ± 1.26 % ID/g
Biodistribution: Spleen (1 hr post-injection): 0.52 ± 0.04 % ID/g
Biodistribution: Stomach (1 hr post-injection): 16.71 ± 2.46 % ID/g
Biodistribution: Tumor (1 hr post-injection): 26 % ID/g and 26.01 ± 5.74 % ID/g
Tumor/Blood ratio (1 hr post-injection): 19.7 and 19.7 ± 4.8
Tumor/Kidney ratio (1 hr post-injection): 0.36 ± 0.06
Tumor/Muscle ratio (1 hr post-injection): 12.7 and 12.7 ± 5.8
Biodistribution: Bladder (4 hr post-injection): 2.68 ± 1.89 % ID/g
Biodistribution: Blood (4 hr post-injection): 0.65 ± 0.06 % ID/g
Biodistribution: Brain (4 hr post-injection): 0.45 ± 0.06 % ID/g
Biodistribution: Fat (4 hr post-injection): 0.42 ± 0.22 % ID/g
Biodistribution: Heart (4 hr post-injection): 2.91 ± 0.45 % ID/g
Biodistribution: Kidney (4 hr post-injection): 41.52 ± 6.07 % ID/g
Biodistribution: Liver (4 hr post-injection): 4.00 ± 0.8 % ID/g
Biodistribution: Lung (4 hr post-injection): 17.85 ± 3.55 % ID/g
Biodistribution: Muscle (4 hr post-injection): 1.01 ± 0.28 % ID/g
Biodistribution: Pancreas (4 hr post-injection): 1.54 ± 0.40 % ID/g
Biodistribution: Small intestine (4 hr post-injection): 4.27 ± 0.69 % ID/g
Biodistribution: Spleen (4 hr post-injection): 0.51 ± 0.08 % ID/g
Biodistribution: Stomach (4 hr post-injection): 7.91 ± 1.28 % ID/g
Biodistribution: Tumor (4 hr post-injection): 20.8 % ID/g and 20.83 ± 6.25 % ID/g
Tumor/Blood ratio (4 hr post-injection): 31.9 ± 9.4
Tumor/Kidney ratio (4 hr post-injection): 0.50 ± 0.15
Tumor/Muscle ratio (4 hr post-injection): 21.4 ± 7.2
Biodistribution: Bladder (8 hr post-injection): 2.28 ± 0.51 % ID/g
Biodistribution: Blood (8 hr post-injection): 0.48 ± 0.02 % ID/g
Biodistribution: Brain (8 hr post-injection): 0.59 ± 0.09 % ID/g
Biodistribution: Fat (8 hr post-injection): 0.45 ± 0.08 % ID/g
Biodistribution: Heart (8 hr post-injection): 2.61 ± 0.35 % ID/g
Biodistribution: Kidney (8 hr post-injection): 28.79 ± 21.35 % ID/g
Biodistribution: Liver (8 hr post-injection): 3.65 ± 0.65 % ID/g
Biodistribution: Lung (8 hr post-injection): 17.39 ± 8.99 % ID/g
Biodistribution: Muscle (8 hr post-injection): 1.09 ± 0.15 % ID/g
Biodistribution: Pancreas (8 hr post-injection): 1.61 ± 0.28 % ID/g
Biodistribution: Small intestine (8 hr post-injection): 4.31 ± 0.67 % ID/g
Biodistribution: Spleen (8 hr post-injection): 0.64 ± 0.07 % ID/g
Biodistribution: Stomach (8 hr post-injection): 8.74 ± 1.26 % ID/g
Biodistribution: Tumor (8 hr post-injection): 34.0 % ID/g and 34.00 ± 15.16 % ID/g
Tumor/Blood ratio (8 hr post-injection): 77.0 ± 32.5
Tumor/Kidney ratio (8 hr post-injection): 3.1 ± 3.1
Tumor/Muscle ratio (8 hr post-injection): 34.2 ± 16.0
Tumor/liver ratio (24 h): 8.5
uptake to tumors with simultaneously injected non-radioactive competitor 1 (24 h and 48 h post injection): ~1%
tumor/organ ratio, all other organs (24 h post-injection): ≥ 10
Biodistribution: Bladder [1]: 0.20 ± 0.07 % ID/g
Biodistribution: Blood [1]: 0.03 ± 0.00 % ID/g
Biodistribution: Brain [1]: 0.03 ± 0.00 % ID/g
Biodistribution: Fat [1]: 0.02 ± 0.01 % ID/g
Biodistribution: Heart [1]: 0.04 ± 0.01 % ID/g
Biodistribution: Kidney [1]: 0.68 ± 0.14 % ID/g
Biodistribution: Liver [1]: 0.10 ± 0.02 % ID/g
